The test system of data set [1] is MDA-MB-157. Description: ATP depletion cytotoxicity assay 48 hr. In kind it is cell-based, human. The note with it: MDA-MB-157; CXR1002 300 μM; 48 hours.
Procedure: (§2) Assay replicates were independent in time and up to 4 replicates were performed per cell line.
(§3) Cells were plated at the optimal plating density for that cell line in 96-well plates and allowed to attach overnight. The next day, the medium was removed and replaced with fresh medium containing the dose ranges of test items. […] There were 3 replicates for each test item concentration.
(§4) Following exposure to Test Items, the CellTitre-Glo Luminescent Cell Viability Assay to measure ATP content was performed according to the manufacturer's detailed instructions (Promega Corporation, Technical Bulletin No. 288, and Cell notes, Issue 10, 2004).
(§5) Cells were plated at the optimal plating density for that cell line in 96-well plates and allowed to attach overnight. The next day, cells were pre-treated with the inhibitors UO126 or LY294002 (see Tables 18 & 20) for 2 hrs, the medium was removed and replaced with fresh medium containing the appropriate dose of the test item. […] Cells were exposed to these compounds in Roswell Park Memorial Institute (RPMI) medium containing 10% Foetal Calf Serum (FCS) and 2 mM Glutamine at 37° C. and 5% CO2 for 48 hours. There were 3 replicates for each test item concentration.
(§6) Following exposure to Test Items, the CellTitre-Glo Luminescent Cell Viability Assay to measure ATP content will be performed according to the manufacturer's detailed instructions (Promega Corporation, Technical Bulletin No. 288, and Cell notes, Issue 10, 2004).
A further data set concerns MCF-7. Description: SRB cytotoxicity assay 48 hr. The following applies: Homo sapiens, MCF7, 48 h, read-out: IC50 Values After 48 Hrs Exposure. Type of data set: cell-based, human. A general note: Sulforhodamine B stains cellular protein and so reports cell mass.
The test system of the next data set is A2780. Put plainly: SRB cytotoxicity assay 48 hr. In kind it is cell-based, human. The note with it: Homo sapiens, A2780, 48 h, read-out: IC50 Values After 48 Hrs Exposure.
Data set [2] deals with panel of human tumour-derived cell lines. Put plainly: BrdU incorporation (cell proliferation) in the SRB cell line panel. In kind it is cell-based. The following applies: 48 hrs. (Dividing cells build labelled thymidine or BrdU into new DNA.)
The subject of another data set is A549. Put plainly: SRB cytotoxicity assay 48 hr. In kind it is cell-based, human. The note with it: Homo sapiens, A549, 48 h, read-out: IC50 Values After 48 Hrs Exposure.
Another data set deals with normal pancreas tissue. Put plainly: Microarray ER stress response in normal pancreas (28 day study in rat). In kind it is in vivo. The source says: Chemical toxicants such as tunicamycin and thapsigargin cause an accumulation of unfolded protein aggregates in the ER lumen (Schroder (2008)), (Harding (2002)), (Zhang (2008)). Whilst it is fair to say that many chemicals, drugs and toxicants induce ER stress, not all do. […] The phthalate DEHP and the PPARα agonist WY14,643 were also studied.

In the next data set the test system is A375. Description: SRB cytotoxicity assay 48 hr. Type of data set: cell-based, human. The following applies: Homo sapiens, A-375, 48 h, read-out: IC50 Values After 48 Hrs Exposure.
A further data set concerns HepG2. Put plainly: SRB cytotoxicity assay 48 hr. Type of data set: cell-based, human. The following applies: read-out: IC50 Values After 48 Hrs Exposure.
For data set [3] the following is noted: without reported adverse effects; cited from earlier work.
Data set [4] concerns Male Sprague Dawley rats. Put plainly: Dietary APFO (300 ppm) study in rats: plasma glucose, triglycerides, cholesterol, AST, ALT, APFO level. Type of data set: in vivo, rat. Also on record: Glucose / Triglycerides / ALT / AST: unit not given here. The note with it: for ALT / AST / Glucose / Triglycerides: plasma, 300 ppm in diet.
For the next data set, the system named is Hep3B. Description: SRB cytotoxicity assay 48 hr. The note with it: Homo sapiens, 48 h, read-out: IC50 Values After 48 Hrs Exposure. In kind it is cell-based, human.
The test system of data set [5] is MDA-MB-157. Put plainly: SRB cytotoxicity assay 48 hr. The note with it: Homo sapiens, MDA-MB-157, 48 h, read-out: IC50 Values After 48 Hrs Exposure. In kind it is cell-based, human.
Procedure: (§7) The SRB assay was performed according to the method specified by the NIC/NIH. […] Assay replicates were independent in time and up to 4 replicates were performed per cell line.
Data set [6] deals with hepatic peroxisome proliferation (PPARα). Description: Hepatic peroxisome proliferation (cyanide-insensitive palmitoyl CoA oxidation) in rats. Type of data set: in vivo, rat. The following applies: administration to rats. The source says: The earliest recognised characteristic of PPARα agonists was their ability to induce peroxisome proliferation in hepatocytes. The PPARα response is reflected in the increased transcription of mitochondrial and peroxisomal lipid metabolism, sterol, and bile acid biosynthesis and retinol metabolism genes (Andersen (2008)).
Peroxisome proliferation occurs as a result of the interaction of a chemical with PPARα. This leads to an increase in the synthesis of peroxisomal and lipid-metabolising enzymes and, consequently, an increase in size and number of peroxisomes. Cyanide-insensitive palmitoyl CoA oxidation is an accepted marker of peroxisome proliferation, and was used to highlight PPARα activation in vitro and in vivo.

Data set [7] relates to panel of human tumour-derived cell lines. Description: Hoechst 3342 staining (apoptotic cells) in the SRB cell line panel. Type of data set: cell-based.
The test system of another data set is PC3. Description: SRB cytotoxicity assay 48 hr. In kind it is cell-based, human. The following applies: Homo sapiens, PC-3, 48 h, read-out: IC50 Values After 48 Hrs Exposure.
The target in a further data set is CYP2C9 (Homo sapiens, UniProt P11712). Put plainly: Cytochrome P450 isozyme inhibition. Type of data set: in vitro ADME. The following applies: under the conditions used (unpublished data); read-out: IC50 towards CYP2C9. From the text:
There is no evidence that APFO is metabolised in mammals once dissociated to form perfluorooctanoate.

The next data set deals with HT-29. Put plainly: SRB cytotoxicity assay 48 hr. Type of data set: cell-based, human. The note with it: Homo sapiens, HT-29, 48 h, read-out: IC50 Values After 48 Hrs Exposure.
The subject of a further data set is CaCo-2. Put plainly: SRB cytotoxicity assay 48 hr. Type of data set: cell-based, human. The note with it: read-out: IC50 Values After 48 Hrs Exposure.
The nature of data set [8]: Dietary APFO (300 ppm) study in rats: plasma glucose, triglycerides, cholesterol, AST, ALT, APFO level. Also on record: Triglycerides / Cholesterol / Glucose: unit not given here. The note with it: male, Sprague Dawley, rat, oral, 300 ppm in diet. In kind it is in vivo, rat. As to the method: (§1) Rats were sacrificed at 7, 14, 28 and 84 days. Blood from each study animal was taken by cardiac puncture into lithium/heparin-coated tubes for separation of plasma. Plasma was analysed for glucose, triglycerides, cholesterol, AST and ALT (unpublished data).

Data set [9] relates to Male Sprague Dawley rats. The data set is described as above. On the set-up: Triglycerides / Cholesterol / Glucose: unit not given here. The following applies: 300 ppm in diet. Type of data set: in vivo, rat. As to the method: as §1
Another data set concerns HPAFII. Description: ATP depletion cytotoxicity assay 48 hr. In kind it is cell-based, human. The note with it: DPQ 20 μM + CXR1002 0-1 mM; HPAFII.
In another data set the test system is SW1353. Put plainly: ATP depletion cytotoxicity assay 48 hr. The note with it: DPQ 20 μM + CXR1002 0-1 mM; SW1353. In kind it is cell-based, human.
The subject of the next data set is Capan2. Put plainly: ATP depletion cytotoxicity assay 48 hr. The note with it: DPQ 20 μM + CXR1002 0-1 mM; Capan2. Type of data set: cell-based, human.
Data set [10] concerns panel of tumour cell lines. Put plainly: ATP cytotoxicity assay on the panel of tumour cell lines (CXR1002 alone; test items alone vs combined with CXR1002). The note with it: a number of the cell lines; single dose of CXR1002; 48 hours.
Procedure: as §7
Cells were plated at the optimal plating density for that cell line in 96-well plates and allowed to attach overnight. The next day, the medium was removed and replaced with fresh medium containing the dose ranges of test items. The cells were exposed to 5-FU, cisplatin, docetaxel, doxorubicin, geldanamycin, gemcitabine, rapamycin or roscovitine in Roswell Park Memorial Institute (RPMI) medium containing 10% Foetal Calf Serum (FCS) and 2 mM Glutamine at 37° C. and 5% CO2 for 48 hours. […] There were 3 replicates for each test item concentration.
as §4
In a further data set the test system is H (chondrosarcoma). Description: ATP depletion cytotoxicity assay 48 hr. The note with it: LY294002 12.5 μM + CXR1002 0-1 mM; sarcoma cell line H most notably.

Each structure is given as a SMILES string. Structures can show the parent of a compound that is named as a salt. Where two headings read alike, the source gives them in different places.

Sequence of CYP2C9 (P11712 whole entry): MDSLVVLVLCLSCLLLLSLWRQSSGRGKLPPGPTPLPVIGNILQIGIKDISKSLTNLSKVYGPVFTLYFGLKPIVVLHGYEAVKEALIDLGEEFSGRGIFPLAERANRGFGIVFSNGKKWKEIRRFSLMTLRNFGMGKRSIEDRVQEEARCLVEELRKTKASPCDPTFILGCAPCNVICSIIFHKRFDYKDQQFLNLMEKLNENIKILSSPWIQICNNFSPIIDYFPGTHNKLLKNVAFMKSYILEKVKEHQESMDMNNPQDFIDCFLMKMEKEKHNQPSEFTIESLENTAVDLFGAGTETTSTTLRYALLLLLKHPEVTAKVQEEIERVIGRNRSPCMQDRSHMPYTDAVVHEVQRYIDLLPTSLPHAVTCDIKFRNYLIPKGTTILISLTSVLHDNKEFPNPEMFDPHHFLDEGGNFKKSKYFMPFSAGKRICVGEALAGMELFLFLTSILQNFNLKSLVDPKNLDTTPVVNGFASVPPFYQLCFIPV
Procedure for A2780: as §7
Procedure for A375: as §7
Procedure for A549: as §7
Procedure for CaCo-2: as §7
Procedure for Capan2: as §2, §3, §4, §5, §6
Procedure for H (chondrosarcoma): as §2, §3
Cells were plated at the optimal plating density for that cell line in 96-well plates and allowed to attach overnight. The next day, cells were pre-treated with the inhibitors UO126 or LY294002 (see Tables 18 & 20) for 2 hrs, the medium was removed and replaced with fresh medium containing the appropriate dose of the test item. […] Cells that were to be treated with DPQ received no pre-treatment. […] There were 3 replicates for each test item concentration.
Procedure for HPAFII: as §4
(§8) Cells were plated at the optimal plating density for that cell line in 96-well plates and allowed to attach overnight. […] Cells were exposed to these compounds in Roswell Park Memorial Institute (RPMI) medium containing 10% Foetal Calf Serum (FCS) and 2 mM Glutamine at 37° C. and 5% CO2 for 48 hours. There were 3 replicates for each test item concentration.
as §6
Procedure for HT-29: as §7
Procedure for Hep3B: as §7
Procedure for HepG2: as §7
Procedure for MCF-7: as §7
Procedure for PC3: as §7
Procedure for SW1353: as §4, §8, §6

In the case of `O=c1[nH]cc(F)c(=O)[nH]1` [5-FU, 5-Fluorouracil, reference compound], in the data set with MDA-MB-157 [1], the “sensitivity to combination with CXR1002 vs test item alone” value (shortened to “sensitivity … vs test item alone”) is recorded as “apparent increase in sensitivity”.

As for `O=C(O)C(F)(F)C(F)(F)C(F)(F)C(F)(F)C(F)(F)C(F)(F)C(F)(F)F` [APFO, Ammonium Perfluorooctanoate], the IC50 (usually the concentration needed to halve the response being measured) in the data set with MCF-7 was 388 ± 227 µM; with A2780 it was 260 ± 28.3 µM; in the data set on A549, 223 ± 35.4 µM; in the data set on A375, 230 ± 10 µM; in the data set with HepG2 (Homo sapiens, HepG2, 48 h), around 160 µM; in the data set on HepG2, 167 ± 97.1 µM. Moreover, the half-maximal inhibitory concentration (IC50) in the data set on Hep3B was 273 ± 80.2 µM; in the data set on MDA-MB-157 [5], 512 ± 194 µM; with PC3, 317 ± 59.2 µM; at CYP2C9, 0.78 µM; with HT-29, 283 ± 5.8 µM; with CaCo-2 (Homo sapiens, Caco-2, 48 h) it was around 740 µM. Besides, the half-inhibitory concentration (IC50) with CaCo-2 is 737 ± 245 µM. Moreover, the BrdU incorporation entry is listed as “No marked effects” in [2] (10 μM); “variable” in [2] (30 μM); “Significant suppression of BrdU incorporation” in data set [2] (300 μM, all but one of the cell lines). Also, the ER stress response entry in the data set on normal pancreas tissue is given as “not seen”. The “serum concentration in workers involved in manufacture” value in data set [3] is at most 275 µM. The adverse clinical observations entry in the data set with Male Sprague Dawley rats [4] (after one year of continuous dietary dosing, 300 ppm) is “No adverse clinical observations”. Moreover, the ALT in the data set with Male Sprague Dawley rats [4] (Days 1 (so in the source)) is 101.90 ± 12.19; in the data set on Male Sprague Dawley rats [4] (Days 2 (so in the source)), 119.45 ± 19.27; with Male Sprague Dawley rats [4] (Days 4 (so in the source)) it was 98.99 ± 24.44; with Male Sprague Dawley rats [4] (Days 12 (so in the source)), 91.89 ± 14.88. For the same molecule, the AST in the data set on Male Sprague Dawley rats [4] (Days 2 (so in the source)) is 120.00 ± 16.47; in the data set on Male Sprague Dawley rats [4] (Days 4 (so in the source)), 101.80 ± 19.17; in the data set on Male Sprague Dawley rats [4] (Days 12 (so in the source)), 92.63 ± 12.19. Further, the Glucose in the data set on Male Sprague Dawley rats [4] (Week 1) turned out to be 14.31 ± 1.88; in the data set on Male Sprague Dawley rats [4] (Week 2), 16.98 ± 3.21; in the data set with Male Sprague Dawley rats [9] (Week 4) it was 15.34 ± 2.64; in the data set on Male Sprague Dawley rats [9] (Week 12), 13.12 ± 1.23. Besides, the Triglycerides was 0.57 ± 0.13 in the data set with Male Sprague Dawley rats [4] (Week 4), 0.63 ± 0.15 in the data set with Male Sprague Dawley rats [4] (Week 12), 0.41 ± 0.12 with Male Sprague Dawley rats [9] (Week 1) and 0.62 ± 0.13 in the data set on Male Sprague Dawley rats [9] (Week 2). For the same molecule, the “hepatic peroxisome proliferation (induction of cyanide-insensitive palmitoyl CoA oxidation)” value in [6] is given as “led to hepatic peroxisome proliferation”. The figures for the induction of apoptosis result in data set [7] (10 μM), in [7] (30 μM) and in data set [7] (300 μM) were “little effect”, “variable responses” and “marked induction of apoptosis”, respectively. This molecule also returned a concentration at 2 weeks in data set [8] (week 2) of 157 ± 77.8 µM. This molecule gave a concentration at 4 weeks in data set [8] (week 4) of 257 ± 38.9 µM. Further, the values for the Cholesterol in the data set on Male Sprague Dawley rats [9] (Week 2), in the data set on Male Sprague Dawley rats [9] (Week 4) and in the data set on Male Sprague Dawley rats [9] (Week 12) were 1.55 ± 0.27, 1.70 ± 0.29 and 1.75 ± 0.33, respectively.

On to `CCCCC(CC)COC(=O)c1ccccc1C(=O)OCC(CC)CCCC` (centres unmarked) [DEHP], for which, in the data set with normal pancreas tissue, the ER stress response result was “No evidence of ER stress response was detected”.

In the case of `O=C1NCCc2c(OCCCCN3CCCCC3)cccc21` [DPQ, reference compound], the “sensitivity in conjunction with CXR1002 vs CXR1002 alone” value with HPAFII, in the data set with SW1353 and in the data set with Capan2 was “increased sensitivity” throughout.

As to `COc1cccc2c1C(=O)c1c(O)c3c(c(O)c1C2=O)C[C@@](O)(C(=O)CO)C[C@@H]3O[C@H]1C[C@H](N)[C@H](O)[C@H](C)O1` [Doxorubicin, Doxorubicin hydrochloride], in [10], the “sensitivity … vs test item alone” value is reported as “increase the sensitivity”.

With `O=c1cc(N2CCOCC2)oc2c(-c3ccccc3)cccc12` [LY294002, reference compound], the “cytotoxic efficacy in conjunction with CXR1002 vs CXR1002 alone” value in the data set on H (chondrosarcoma) was “increased efficacy”.

In the case of `Cc1cccc(Nc2cc(Cl)nc(SCC(=O)O)n2)c1C` [WY14,643], in the data set on normal pancreas tissue, the ER stress response result is recorded as “No evidence of ER stress response was detected”.

With `Nc1ccn([C@@H]2O[C@H](CO)[C@@H](O)C2(F)F)c(=O)n1` [gemcitabine, Gemcitabine], the “sensitivity … vs test item alone” value in data set [10] was “increase the sensitivity”.

Regarding `CC[C@H](CO)Nc1nc(NCc2ccccc2)c2ncn(C(C)C)c2n1` [roscovitine, Roscovitine], the “sensitivity … vs test item alone” value in data set [10] is recorded as “increase the sensitivity”.

The record behind these values is US20130029928A1 (priority 2010, published 2013).
